Tests used:
[1] = molecular target: Neutrophil collagenase (Homo sapiens, UniProt P22894)
Description: Inhibitory activity against the Matrix Metalloprotease-8

[2] = molecular target: 72 kDa type IV collagenase (Homo sapiens, UniProt P08253)
Description: Inhibitory activity against the Matrix Metalloprotease 2 (MMP-2)

[3] = molecular target: Matrix metalloproteinase-9 (Homo sapiens, UniProt P14780)
Description: Inhibitory activity against the Matrix metalloprotease-9

[4] = molecular target: T1, Interstitial collagenase (Homo sapiens, UniProt P03956)
T1 sequence (P03956 whole entry): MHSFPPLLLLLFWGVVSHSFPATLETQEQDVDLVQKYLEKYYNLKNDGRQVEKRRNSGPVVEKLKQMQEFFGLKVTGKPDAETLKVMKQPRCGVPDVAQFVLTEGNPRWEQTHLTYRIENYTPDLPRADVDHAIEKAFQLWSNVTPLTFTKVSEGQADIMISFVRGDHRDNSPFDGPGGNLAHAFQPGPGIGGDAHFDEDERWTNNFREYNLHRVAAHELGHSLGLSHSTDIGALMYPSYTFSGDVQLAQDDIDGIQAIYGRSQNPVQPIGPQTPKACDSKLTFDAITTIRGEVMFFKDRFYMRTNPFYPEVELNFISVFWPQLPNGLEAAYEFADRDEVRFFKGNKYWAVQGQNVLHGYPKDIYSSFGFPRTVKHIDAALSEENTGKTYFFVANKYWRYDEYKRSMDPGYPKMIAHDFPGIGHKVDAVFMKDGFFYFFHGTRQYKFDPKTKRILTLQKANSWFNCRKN
Description: Inhibitory activity against the Matrix Metalloprotease 1 (MMP-1)

Matrix metalloproteinase-9, sequence (P14780 whole entry): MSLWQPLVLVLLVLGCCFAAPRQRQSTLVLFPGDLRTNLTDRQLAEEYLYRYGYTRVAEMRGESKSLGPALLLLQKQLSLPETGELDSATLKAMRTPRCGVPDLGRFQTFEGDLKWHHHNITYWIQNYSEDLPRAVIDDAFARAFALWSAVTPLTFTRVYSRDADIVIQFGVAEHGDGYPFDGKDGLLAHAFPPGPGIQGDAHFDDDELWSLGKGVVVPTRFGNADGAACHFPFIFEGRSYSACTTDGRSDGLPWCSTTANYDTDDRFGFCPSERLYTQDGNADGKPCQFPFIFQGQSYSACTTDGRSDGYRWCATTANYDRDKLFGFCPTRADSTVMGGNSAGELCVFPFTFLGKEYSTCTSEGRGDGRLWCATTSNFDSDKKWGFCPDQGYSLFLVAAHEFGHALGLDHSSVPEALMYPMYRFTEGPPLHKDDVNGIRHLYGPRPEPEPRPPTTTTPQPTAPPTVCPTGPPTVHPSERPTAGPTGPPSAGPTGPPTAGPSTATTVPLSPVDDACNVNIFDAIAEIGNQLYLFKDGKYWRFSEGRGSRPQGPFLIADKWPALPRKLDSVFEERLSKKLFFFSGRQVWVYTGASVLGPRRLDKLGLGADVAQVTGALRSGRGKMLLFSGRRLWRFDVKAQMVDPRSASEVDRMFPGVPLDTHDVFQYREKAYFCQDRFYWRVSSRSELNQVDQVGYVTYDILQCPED
72 kDa type IV collagenase, sequence (P08253 whole entry): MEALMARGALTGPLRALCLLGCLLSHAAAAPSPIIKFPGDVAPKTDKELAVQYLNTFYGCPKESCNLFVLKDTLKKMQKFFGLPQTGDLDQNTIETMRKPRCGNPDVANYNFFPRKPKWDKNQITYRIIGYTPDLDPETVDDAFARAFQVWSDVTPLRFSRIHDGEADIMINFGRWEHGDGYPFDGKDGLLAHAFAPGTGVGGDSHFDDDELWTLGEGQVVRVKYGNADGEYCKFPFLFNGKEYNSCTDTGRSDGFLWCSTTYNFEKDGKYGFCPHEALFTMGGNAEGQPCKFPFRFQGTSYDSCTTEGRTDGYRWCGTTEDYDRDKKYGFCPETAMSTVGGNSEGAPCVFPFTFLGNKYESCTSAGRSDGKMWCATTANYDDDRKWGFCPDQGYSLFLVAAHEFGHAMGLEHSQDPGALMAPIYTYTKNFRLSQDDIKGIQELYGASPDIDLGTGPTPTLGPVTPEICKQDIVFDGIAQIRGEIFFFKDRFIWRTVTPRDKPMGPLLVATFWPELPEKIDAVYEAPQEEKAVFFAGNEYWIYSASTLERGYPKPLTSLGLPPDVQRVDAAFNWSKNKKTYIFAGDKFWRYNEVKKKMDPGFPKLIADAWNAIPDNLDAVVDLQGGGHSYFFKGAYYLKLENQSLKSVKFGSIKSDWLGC
Neutrophil collagenase, sequence (P22894 whole entry): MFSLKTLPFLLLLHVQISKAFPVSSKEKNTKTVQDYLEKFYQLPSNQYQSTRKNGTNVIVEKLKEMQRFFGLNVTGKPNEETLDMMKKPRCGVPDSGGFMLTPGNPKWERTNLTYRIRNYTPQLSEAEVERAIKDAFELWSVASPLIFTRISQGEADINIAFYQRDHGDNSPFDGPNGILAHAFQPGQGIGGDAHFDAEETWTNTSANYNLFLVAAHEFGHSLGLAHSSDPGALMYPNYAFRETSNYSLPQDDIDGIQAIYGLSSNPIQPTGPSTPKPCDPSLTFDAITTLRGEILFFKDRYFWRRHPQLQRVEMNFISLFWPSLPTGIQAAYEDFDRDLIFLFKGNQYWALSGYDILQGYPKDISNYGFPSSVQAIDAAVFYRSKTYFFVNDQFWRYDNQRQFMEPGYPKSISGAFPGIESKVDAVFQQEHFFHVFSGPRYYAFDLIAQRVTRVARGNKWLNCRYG

Structure (SMILES) | Ki [1] [nM] | Ki [2] [nM] | Ki [3] [nM] | Ki [4] [nM]
Cc1cc(C)c(S(=O)(=O)N(CC(=O)NO)Cc2ccc([N+](=O)[O-])cc2)c(C)c1 | 29 | 25 | 39 | 36
CC(=O)Nc1ccc(S(=O)(=O)N(CC(=O)NO)Cc2ccc([N+](=O)[O-])cc2)cc1 | 9 | 8 | 12 | 14
O=C(CN(Cc1ccc([N+](=O)[O-])cc1)C(=O)NS(=O)(=O)c1ccccc1)NO | 4 | 5 | 3 | 39
O=C(CN(Cc1ccc([N+](=O)[O-])cc1)S(=O)(=O)c1ccc(Br)cc1)NO | 21 | 13 | 21 | 25
O=C(CN(Cc1ccc([N+](=O)[O-])cc1)C(=O)Nc1ccc(Cl)c(Cl)c1)NO | 5 | 6 | 7 | 31
O=C(CN(Cc1ccc([N+](=O)[O-])cc1)S(=O)(=O)c1cccc(NC(=O)NS(=O)(=O)c2ccccc2)c1)NO | 1 | 1.2 | 1.3 | 60
O=C(CN(Cc1ccc([N+](=O)[O-])cc1)S(=O)(=O)c1ccc(NC(=O)NS(=O)(=O)c2ccc(Cl)cc2)cc1)NO | 1.1 | 0.8 | 1 | 50
O=C(CN(Cc1ccc([N+](=O)[O-])cc1)S(=O)(=O)c1ccc(NC(=O)NS(=O)(=O)c2ccccc2)cc1)NO | 0.7 | 0.6 | 0.9 | 61
O=C(O)CN(Cc1ccc([N+](=O)[O-])cc1)S(=O)(=O)c1cccc(NC(=O)NS(=O)(=O)c2ccc(F)cc2)c1 | 34 | 15 | 18 | > 100
O=C(CN(Cc1ccc([N+](=O)[O-])cc1)C(=S)NC(=O)c1ccccc1)NO | 1.5 | 2 | 1.4 | 37
O=C(CN(Cc1ccc([N+](=O)[O-])cc1)S(=O)(=O)c1ccc(C(=O)O)cc1)NO | 2.4 | 2.5 | 2.8 | 34
CN(C)S(=O)(=O)N(CC(=O)NO)Cc1ccc([N+](=O)[O-])cc1 | 35 | 36 | 43 | 26
O=C(CN(Cc1ccc([N+](=O)[O-])cc1)S(=O)(=O)c1cccc(NC(=O)NS(=O)(=O)c2ccc(F)cc2)c1)NO | 1.4 | 1.8 | 2.5 | 49
Cc1ccc(S(=O)(=O)NC(=O)Nc2cccc(S(=O)(=O)N(CC(=O)NO)Cc3ccc([N+](=O)[O-])cc3)c2)cc1 | 2.1 | 2.5 | 3.1 | 53
CN(C)c1cccc2c(S(=O)(=O)N(CC(=O)NO)Cc3ccc([N+](=O)[O-])cc3)cccc12 | 58 | 41 | 53 | 83
O=C(CN(Cc1ccc([N+](=O)[O-])cc1)S(=O)(=O)c1cccs1)NO | 12 | 13 | 10 | 14
Cc1ccccc1S(=O)(=O)NC(=O)Nc1ccc(S(=O)(=O)N(CC(=O)NO)Cc2ccc([N+](=O)[O-])cc2)cc1 | 1.5 | 1.6 | 0.7 | 72
CS(=O)(=O)N(CC(=O)NO)Cc1ccc([N+](=O)[O-])cc1 | 24 | 19 | 30 | 75
O=C(CN(Cc1ccc([N+](=O)[O-])cc1)S(=O)(=O)c1ccccc1[N+](=O)[O-])NO | 13 | 15 | 14 | 59
O=C(CN(Cc1ccc([N+](=O)[O-])cc1)Sc1ccc([N+](=O)[O-])cc1)NO | 8 | 10 | 11 | 18
COc1ccc(S(=O)(=O)N(CC(=O)NO)Cc2ccc([N+](=O)[O-])cc2)cc1NC(=O)OC(C)(C)C | 7 | 5 | 7 | 25
O=C(CN(Cc1ccc([N+](=O)[O-])cc1)S(=O)(=O)c1cc(Cl)ccc1Cl)NO | 13 | 10 | 17 | 9

Structure (SMILES) | Ki [1] [nM] | Ki [2] [nM] | Ki [3] [nM] | Ki [4] [nM]
O=C(CN(Cc1ccc([N+](=O)[O-])cc1)S(=O)(=O)c1cccc(NC(=O)NS(=O)(=O)c2ccc(Cl)cc2)c1)NO | 1.3 | 1.5 | 1.6 | 50
O=C(CN(Cc1ccc([N+](=O)[O-])cc1)S(=O)(=O)c1ccc([N+](=O)[O-])c(Cl)c1)NO | 6 | 7 | 7 | 31
O=C(CN(Cc1ccc([N+](=O)[O-])cc1)S(=O)(=O)C(F)(F)C(F)(F)C(F)(F)C(F)(F)C(F)(F)C(F)(F)C(F)(F)C(F)(F)F)NO | 1.3 | 0.9 | 1.3 | 79
CC(C)(C)OC(=O)Nc1ccc(S(=O)(=O)N(CC(=O)NO)Cc2ccc([N+](=O)[O-])cc2)cc1 | 11 | 10 | 10 | 17
O=C(CN(Cc1ccc([N+](=O)[O-])cc1)S(=O)(=O)c1cccc(C(=O)O)c1)NO | 3.3 | 3 | 2.5 | 41
O=C(CN(Cc1ccc([N+](=O)[O-])cc1)S(=O)(=O)c1cccc(C(F)(F)F)c1)NO | 0.7 | 1.1 | 0.8 | 5
O=C(CN(Cc1ccc([N+](=O)[O-])cc1)C(=O)NS(=O)(=O)c1ccc(Cl)cc1)NO | 4 | 3 | 5 | 46
Cc1ccccc1S(=O)(=O)NC(=O)Nc1cccc(S(=O)(=O)N(CC(=O)NO)Cc2ccc([N+](=O)[O-])cc2)c1 | 2 | 2.8 | 3 | 58
Cc1ccc(S(=O)(=O)N(CC(=O)NO)Cc2ccc([N+](=O)[O-])cc2)cc1 | 24 | 20 | 27 | 30
O=C(O)CN(Cc1ccc([N+](=O)[O-])cc1)S(=O)(=O)c1cccc(NC(=O)NS(=O)(=O)c2ccccc2)c1 | 27 | 19 | 22 | > 100
O=C(CN(Cc1ccc([N+](=O)[O-])cc1)S(=O)(=O)C(Cl)(Cl)Cl)NO | 19 | 17 | 25 | 24
O=C(O)CN(Cc1ccc([N+](=O)[O-])cc1)S(=O)(=O)c1ccc(NC(=O)NS(=O)(=O)c2ccccc2)cc1 | 23 | 18 | 21 | > 100
O=C(O)CN(Cc1ccc([N+](=O)[O-])cc1)S(=O)(=O)c1ccc(NC(=O)NS(=O)(=O)c2ccc(Cl)cc2)cc1 | 24 | 21 | 36 | 95
O=C(CN(Cc1ccc([N+](=O)[O-])cc1)C(=O)Nc1cccc2ccccc12)NO | 39 | 35 | 33 | > 100
CC(C)(C)OC(=O)Nc1cccc(S(=O)(=O)N(CC(=O)NO)Cc2ccc([N+](=O)[O-])cc2)c1 | 15 | 11 | 14 | 26
Cc1ccc(S(=O)(=O)NC(=O)Nc2ccc(S(=O)(=O)N(CC(=O)O)Cc3ccc([N+](=O)[O-])cc3)cc2)cc1 | 28 | 24 | 25 | 94
O=C(CN(Cc1ccc([N+](=O)[O-])cc1)S(=O)(=O)c1ccc(I)cc1)NO | 17 | 19 | 16 | 29
Cc1ccc(S(=O)(=O)NC(=O)Nc2cccc(S(=O)(=O)N(CC(=O)O)Cc3ccc([N+](=O)[O-])cc3)c2)cc1 | 30 | 21 | 21 | > 100
O=C(CN(Cc1ccc([N+](=O)[O-])cc1)S(=O)(=O)c1ccc([N+](=O)[O-])cc1)NO | 7 | 9 | 8 | 15
O=C(CN(Cc1ccc([N+](=O)[O-])cc1)S(=O)(=O)c1ccc(NC(=O)NS(=O)(=O)c2ccc(F)cc2)cc1)NO | 0.5 | 0.6 | 1.2 | 54
O=C(CN(Cc1ccc([N+](=O)[O-])cc1)S(=O)(=O)c1ccc(F)cc1)NO | 15 | 15 | 14 | 19
Cc1ccc(S(=O)(=O)NC(=O)N(CC(=O)NO)Cc2ccc([N+](=O)[O-])cc2)cc1 | 6 | 6 | 8 | 54

— ChEMBL document CHEMBL1132937, “Protease inhibitors: synthesis of potent bacterial collagenase and matrix metalloproteinase inhibitors incorporating N-4-nitrobenzylsulfonylglycine hydroxamate moieties” (J Med Chem, 2000)
